Data reported in patent publication US6406720B1, “Cosmetic containing plant extracts” (Laboratoires Serobiologiques (Societe Anonyme), priority 1997, dated 2002).

Tested on: tyrosinase
Test: anti-tyrosinase action (oxidation of L-DOPA to DOPACHROME, Mason's method)
Assay type: biochemical
Settings: concentration which halves the initial speed of DOPACROME formation
Experimental: To determine the de-pigmenting power of the extracts, their tyrosinase action was evaluated by measuring the product of oxidising L-DOPA to DOPACHROME (by HS Mason's method, 1948), carrying out the following stages: […]
mixing tyrosinase with L-DOPA in the phosphate buffer with an automatic pipette recording the optical density at 475 nm for 2 minutes, then calculating the initial speed of the enzyme reaction and determining the C150 (concentration which halves the initial speed of DOPACROME formation).

## Oc1ccc(O)cc1 [Hydroquinone]
  C150 anti-tyrosinase effect in %: 0.025%
